System: head and neck squamous cell carcinoma cells
Experiment: head and neck squamous cell carcinoma xenograft model, tumor volume monitored for 4 weeks
Assay type: in vivo, mice
Conditions: payload equal to low dose sustained release formulation (210 nanograms), FIG. 2
Procedure: Athymic mice were injected subcutaneously with head and neck squamous cell carcinoma cells to form tumors. Mice were divided into groups and treated with a sustained release composition according to the present invention, QR206, at a high dose (2.1 micrograms) a low dose (210 nanograms), or with a low dose of unformulated drug (epothilone D, 210 nanograms). Tumor volume was monitored for 4 weeks.

C/C1=C/C[C@@H](/C(C)=C/c2csc(C)n2)OC(=O)C[C@H](O)C(C)(C)C(=O)[C@H](C)[C@@H](O)[C@@H](C)CCC1 [EpoD, Epothilone D]
tumor growth rate of vehicle only control compared with the unformulated drug: higher tumor growth rate
